US10654833B2, “ASK1 isoindolin-1-one inhibitors and methods of use thereof” (Hepatikos Therapeutics, LLC, priority 2018, dated 2020)

Assays:
[1] = molecular target: recombinant human ASK1 protein (Homo sapiens (Human), UniProt Q99683); assay: ASK1 kinase activity inhibition assay (radiometric 33P incorporation into MBP); format: biochemical; settings: 20 μM MBP, 10 μM 33P-ATP
Outline: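 Compound (1% DMSO final) was preincubated for 20 min at room temperature with recombinant human ASK1 and 20 μM MBP in HEPES pH 7.5 buffer. Reactions started with 10 μM 33P-ATP and ran for 2 h at room temperature. 33P incorporation into MBP was measured by P81 filter binding.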

[2] = molecular target: human OATP1B1 transporter (Homo sapiens (Human), UniProt Q9Y6L6); assay: Transporter mediated cellular uptake, OATP1B1-expressing HEK293; format: in vitro ADME; settings: HEK293 stably expressing human OATP1B1, 37° C., 0.5 minutes
Procedure: (§1) Transporter Mediated Cellular Uptake
(§2) To determine transporter mediated cellular uptake of compounds, HEK293 stably expressing either human OATP1B1 or human OATP1B3 transporter, or mock transfected cells were cultured at 37° C. in an atmosphere of 95:5 air:CO2 DMEM/F12 medium containing 10% FBS, 100 unit/mL penicillin-G and 100 μg/mL streptomycin. Transporter expressing cell culture medium also contained 500 μg/mL G418 disulfate solution. Cells were plated onto 24-well poly-D-lysine coated culture plates at the density 5×10^5 cells/well 24 hours prior to uptake assay. Compound stock solutions were made at 1000× final concentration in 100% DMSO. Final compound solutions were prepared by diluting stock solutions into HBSS buffer (pH 7.4) On the day of the uptake assay cell culture media was removed and cells were washed twice with 300 μL of HBSS buffer (pH 7.4). Cellular uptake of compound into the cells was measured by adding 300 μL of final compound solutions in HBSS and incubating them at 37° C. for 0.5 minutes (OATP1B1) or 5 minutes (OATP1B3). Reactions were quenched by removing the buffer containing the TA and the cells were washed twice with 300 μL of HBSS buffer. Cells were lysed by adding 300 μL of MeOH:H2O (2:1) and incubated for 20 minutes at 4° C. The amount of compound in the cell lysate was determined by LC-MS/MS. The amount of protein in each well was quantified using the BCA kit for protein determination and used to normalize compound uptake (Sigma-Aldrich, St Louis, Mo., USA). • Uptake of the probe substrate in control cells provided background activity values for all data points. • Incubation with probe substrate (solvent only) provided 100% activity values. • A reference positive control was used for each transporter

ASK1 kinase active site = ASK1 kinase active site (Homo sapiens (Human), UniProt Q99683); assay: ASK1 kinase active site binding assay (KINOMEscan); settings: 11-point 3-fold dilution series
Procedure: ASK1 Kinase Active Site Binding Assay
Compound binding to the ASK1 kinase active site was determined using the KINOMEscan Assay platform (DiscoverX, San Diego, Calif.). Briefly, ASK1-tagged T7 phage strains were prepared in an E. coli host derived from the BL21 strain. E. coli were grown to log-phase and infected with T7 phage and incubated with shaking at 32° C. until lysis. The lysates were centrifuged and filtered to remove cell debris. The remaining kinases were produced in HEK-293 cells and subsequently tagged with DNA for qPCR detection. Streptavidin-coated magnetic beads were treated with biotinylated small molecule ligands for 30 minutes at room temperature to generate affinity resins for kinase assays. The liganded beads were blocked with excess biotin and washed with blocking buffer (SeaBlock (Pierce), 1% BSA, 0.05% Tween 20, 1 mM DTT) to remove unbound ligand and to reduce nonspecific binding. Binding reactions were assembled by combining kinases, liganded affinity beads, and test compounds in 1× binding buffer (20% SeaBlock, 0.17×PBS, 0.05% Tween 20, 6 mM DTT). Test compounds were prepared as 111× stocks in 100% DMSO. Kds were determined using an 11-point 3-fold compound dilution series with three DMSO control points. […] The kinase concentration in the eluates was measured by qPCR. Binding constants (Kds) were calculated with a standard dose-response curve using the Hill equation. […]

[3] = molecular target: human OATP1B3 transporter (Homo sapiens (Human), UniProt Q9NPD5); assay: Transporter mediated cellular uptake, OATP1B3-expressing HEK293; format: in vitro ADME; settings: HEK293 stably expressing human OATP1B3, 37° C., 5 minutes
Procedure: as §1, §2

Chain of human OATP1B1 transporter (Q9Y6L6 whole entry): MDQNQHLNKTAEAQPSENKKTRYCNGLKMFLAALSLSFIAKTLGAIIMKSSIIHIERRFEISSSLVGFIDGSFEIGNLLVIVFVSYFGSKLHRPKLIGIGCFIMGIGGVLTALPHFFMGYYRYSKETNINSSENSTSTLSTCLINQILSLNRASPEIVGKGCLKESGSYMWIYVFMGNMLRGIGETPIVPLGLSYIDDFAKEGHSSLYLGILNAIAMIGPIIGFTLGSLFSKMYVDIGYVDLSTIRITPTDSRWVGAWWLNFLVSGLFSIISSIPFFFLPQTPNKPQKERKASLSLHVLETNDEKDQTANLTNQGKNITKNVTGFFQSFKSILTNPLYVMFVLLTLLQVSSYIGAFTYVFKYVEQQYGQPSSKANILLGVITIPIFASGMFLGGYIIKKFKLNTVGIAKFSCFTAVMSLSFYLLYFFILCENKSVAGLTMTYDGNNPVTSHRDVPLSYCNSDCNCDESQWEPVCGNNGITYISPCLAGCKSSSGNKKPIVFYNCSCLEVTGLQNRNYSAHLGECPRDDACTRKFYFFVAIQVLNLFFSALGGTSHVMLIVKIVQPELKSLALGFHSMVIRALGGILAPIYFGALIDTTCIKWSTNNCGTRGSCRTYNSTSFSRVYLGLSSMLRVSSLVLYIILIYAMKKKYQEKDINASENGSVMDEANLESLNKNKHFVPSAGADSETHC
Chain of human OATP1B3 transporter (Q9NPD5 whole entry): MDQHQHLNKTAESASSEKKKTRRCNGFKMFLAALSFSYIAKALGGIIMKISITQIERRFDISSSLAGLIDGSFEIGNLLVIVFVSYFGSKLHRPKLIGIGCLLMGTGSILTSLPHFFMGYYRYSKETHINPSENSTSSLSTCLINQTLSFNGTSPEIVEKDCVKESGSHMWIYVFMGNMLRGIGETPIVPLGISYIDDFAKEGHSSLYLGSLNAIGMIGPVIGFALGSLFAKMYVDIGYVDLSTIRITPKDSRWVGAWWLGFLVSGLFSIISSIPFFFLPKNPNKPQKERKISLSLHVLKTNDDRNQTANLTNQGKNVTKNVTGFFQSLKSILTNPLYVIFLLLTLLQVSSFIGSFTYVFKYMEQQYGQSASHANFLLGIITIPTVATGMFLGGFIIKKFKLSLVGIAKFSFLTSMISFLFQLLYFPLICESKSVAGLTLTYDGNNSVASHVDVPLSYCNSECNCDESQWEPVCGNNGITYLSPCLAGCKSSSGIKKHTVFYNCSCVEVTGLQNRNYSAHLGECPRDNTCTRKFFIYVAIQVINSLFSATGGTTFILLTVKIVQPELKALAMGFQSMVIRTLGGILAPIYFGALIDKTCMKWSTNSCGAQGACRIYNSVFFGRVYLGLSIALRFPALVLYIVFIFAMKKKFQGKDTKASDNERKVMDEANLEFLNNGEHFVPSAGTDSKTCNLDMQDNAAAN
Chain of recombinant human ASK1 protein (Q99683 whole entry): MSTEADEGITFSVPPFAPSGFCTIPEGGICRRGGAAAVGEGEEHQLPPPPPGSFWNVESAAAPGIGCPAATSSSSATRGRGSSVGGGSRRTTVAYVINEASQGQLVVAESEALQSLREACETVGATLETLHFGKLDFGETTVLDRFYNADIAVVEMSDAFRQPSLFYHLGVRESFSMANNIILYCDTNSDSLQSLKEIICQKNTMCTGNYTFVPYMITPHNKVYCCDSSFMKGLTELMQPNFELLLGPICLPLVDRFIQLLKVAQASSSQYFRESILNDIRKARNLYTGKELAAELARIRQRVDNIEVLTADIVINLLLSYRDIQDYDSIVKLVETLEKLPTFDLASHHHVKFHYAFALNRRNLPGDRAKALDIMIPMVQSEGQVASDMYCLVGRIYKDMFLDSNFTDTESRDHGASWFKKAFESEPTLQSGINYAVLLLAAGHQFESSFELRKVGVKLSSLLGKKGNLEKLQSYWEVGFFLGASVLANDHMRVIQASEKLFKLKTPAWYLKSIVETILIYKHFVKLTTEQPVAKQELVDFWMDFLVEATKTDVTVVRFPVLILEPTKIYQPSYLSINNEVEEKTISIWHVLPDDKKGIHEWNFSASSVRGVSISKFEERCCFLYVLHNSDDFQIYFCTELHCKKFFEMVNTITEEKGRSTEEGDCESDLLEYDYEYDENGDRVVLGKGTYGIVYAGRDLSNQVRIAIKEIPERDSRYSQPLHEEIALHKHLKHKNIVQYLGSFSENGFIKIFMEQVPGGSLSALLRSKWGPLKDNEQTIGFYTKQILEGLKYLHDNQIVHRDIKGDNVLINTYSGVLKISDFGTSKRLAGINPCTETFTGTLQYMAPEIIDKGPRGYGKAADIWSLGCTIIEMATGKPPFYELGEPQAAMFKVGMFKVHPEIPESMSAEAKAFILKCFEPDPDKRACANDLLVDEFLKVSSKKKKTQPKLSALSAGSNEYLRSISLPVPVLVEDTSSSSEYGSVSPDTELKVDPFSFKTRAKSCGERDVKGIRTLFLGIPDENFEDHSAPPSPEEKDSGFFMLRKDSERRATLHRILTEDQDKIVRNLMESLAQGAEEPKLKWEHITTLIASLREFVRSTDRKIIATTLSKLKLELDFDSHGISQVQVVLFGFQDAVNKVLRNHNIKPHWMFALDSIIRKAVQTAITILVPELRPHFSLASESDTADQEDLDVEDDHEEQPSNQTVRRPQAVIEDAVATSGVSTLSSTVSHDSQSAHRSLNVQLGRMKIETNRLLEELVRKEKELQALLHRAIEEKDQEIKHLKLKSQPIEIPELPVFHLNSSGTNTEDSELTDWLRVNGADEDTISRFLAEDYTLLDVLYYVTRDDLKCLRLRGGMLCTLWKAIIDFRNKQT
Chain of ASK1 kinase active site (Q99683 whole entry): as above

| SMILES | IC50 ([1]; Table 2) | IC50 ([1]; Table 3) | OATP1B1 Uptake (Percent of no transporter control cell) [2] | Kd (ASK1 kinase active site) | OATP1B3 Uptake (Percent of no transporter control cell) [3] |
| --- | --- | --- | --- | --- | --- |
| CC(C)n1cnnc1-c1cccc(N2Cc3ccc(-c4cccc(C(=O)O)c4)cc3C2=O)n1 [Compound 1, 3-(2-(6-(4-isopropyl-4H-1,2,4-triazol-3-yl)pyridin-2-yl)-3-oxoisoindolin-5-yl)benzoic acid] | 5.2 nM | 5.2 nM | 753% | 0.75 nM | 399% |
| CC(C)n1cnnc1-c1cccc(N2Cc3ccc(-c4ccc(C(C)(C)C(=O)O)cc4)cc3C2=O)n1 [Compound 39, 2-(4-(2-(6-(4-isopropyl-4H-1,2,4-triazol-3-yl)pyridin-2-yl)-3-oxoisoindolin-5-yl)phenyl)-2-methylpropanoic acid] | 3.3 nM |  | 175% | 0.86 nM | 316% |
| CC(C)n1cnnc1-c1cccc(N2Cc3ccc(-c4cccc(C(C)(C)C(=O)O)c4)cc3C2=O)n1 [Compound 102, 2-(3-(2-(6-(4-Isopropyl-4H-1,2,4-triazol-3-yl)pyridin-2-yl)-3-oxoisoindolin-5-yl)phenyl)-2-methylpropanoic Acid] |  | 0.7 nM | 221% |  | 632% |
| C[C@]12CC[C@@H]3c4ccc(O)cc4CC[C@H]3[C@@H]1CC[C@@H]2O [Estradiol, reference compound] |  |  |  |  | 490% |
| C[C@]12CC[C@@H]3c4ccc(OS(=O)(=O)O)cc4CC[C@H]3[C@@H]1CCC2=O [Estrone 3-sulphate, reference compound] |  |  | 685% |  |  |
